Source: PMC3056319 (Journal of medicinal chemistry, 2011)
Like-named read-outs stand apart in the source and are kept apart here.

Assays:
[1] = system: P. falciparum Indochina W2 clone; test: microbe, parasite or virus in culture; format: cell-based
[2] = system: P. falciparum African D6 clone; test: microbe, parasite or virus in culture; format: cell-based; details: Plasmodium falciparum, D6, read-out: Antimalarial activity IC50, D6
[3] = system: P. falciparum multidrug resistant C235 strain (Thailand); test: microbe, parasite or virus in culture; format: cell-based
recombinant BoNT/A LC [4] = molecular target: T1, recombinant BoNT/A LC (Clostridium botulinum, UniProt P0DPI0); details: cited from earlier work
T1 sequence (P0DPI0 2-448 limits assumed): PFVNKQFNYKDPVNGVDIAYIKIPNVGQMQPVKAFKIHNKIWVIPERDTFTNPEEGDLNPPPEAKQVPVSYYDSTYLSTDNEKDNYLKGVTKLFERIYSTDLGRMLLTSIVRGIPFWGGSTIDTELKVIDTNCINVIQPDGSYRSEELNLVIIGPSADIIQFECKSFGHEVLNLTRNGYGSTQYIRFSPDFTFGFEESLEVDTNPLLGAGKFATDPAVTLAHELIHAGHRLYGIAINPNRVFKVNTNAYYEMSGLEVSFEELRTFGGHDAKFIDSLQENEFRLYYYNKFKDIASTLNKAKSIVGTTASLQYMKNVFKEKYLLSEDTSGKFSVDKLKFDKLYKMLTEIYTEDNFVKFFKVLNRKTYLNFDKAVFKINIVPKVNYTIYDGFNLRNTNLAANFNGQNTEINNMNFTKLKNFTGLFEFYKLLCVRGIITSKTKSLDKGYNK

recombinant BoNT/A LC [5] = molecular target: T1, recombinant BoNT/A LC; format: biochemical, Closteridium botulinum
EBOV = details: cited from earlier work
Vero76 cells = details: African green monkey
[6] = system: P. berghei (ANKA strain) sporozoites; set-up: species or system ICR mice (Mus musculus); details: mouse, in vivo
[7] = system: RAW 264.7 (rat macrophage) cell line; format: cell-based
P. berghei (P Line) = details: mouse
[8] = system: Recombinant Zaire Ebola virus (EBOV-eGFP); test: microbe, parasite or virus in culture; format: cell-based; details: read-out: EBOV inhibition IC50

SMILES	Toxicity at 20 µM (Vero76 cells) [%]	cell toxicities in dose-response studies (Vero76 cells) [%]	Resistance index (RI) W2/D6 [1]	Selectivity index (IC50) D6 [7]	Selectivity index (IC50) W2 [7]	Selectivity index (IC90) C235 [7]	Selectivity index (IC90) D6 [7]	Selectivity index (IC90) W2 [7]	other results
CCN(CC)CCCC(C)Nc1ccnc2cc(Cl)ccc12 (stereo not drawn) [CQ, chloroquine, reference compound]									IC50 ([1]; Plasmodium falciparum, W2, read-out: Antimalarial activity IC50, W2): 456 nM; IC50 [2]: 12.3 nM; IC50 ([3]; Plasmodium falciparum, read-out: Antimalarial activity IC50, C235): 139 nM; BoNT/A LC inhibition (recombinant BoNT/A LC [4]): weakly inhibit the BoNT/A LC
Cc1cc(NCCCN)c2ccc3c(ccc4c(NCCCN)cc(C)nc43)c2n1.Cl [Compound 7, N,N'-bis(3-aminopropyl)-3,9-dimethylquino[8,7-h]quinoline-1,7-diamine tetrahydrochloride]									type of inhibition kinetics (recombinant BoNT/A LC [5]): competitive inhibitors
Cc1cc(NCCN)c2ccc3c(ccc4c(NCCN)cc(C)nc43)c2n1.Cl [Compound 8, N,N'-bis(2-aminoethyl)-3,9-dimethylquino[8,7-h]quinoline-1,7-diamine tetrahydrochloride]									type of inhibition kinetics (recombinant BoNT/A LC [5]): competitive inhibitors
Cc1cc(NCCCN(C)C)c2ccc3c(ccc4c(NCCCN(C)C)cc(C)nc43)c2n1.Cl [Compound 9, N,N'-bis[3-(dimethylamino)propyl]-3,9-dimethylquino[8,7-h]quinoline-1,7-diamine tetrahydrochloride]									anti-EBOV efficacy in vivo (EBOV): possesses anti-EBOV efficacy in vivo with no toxicity
CCN(CC)CCNc1cc(C)nc2c1ccc1c2ccc2c(NCCN(CC)CC)cc(C)nc21.Cl [Compound 11, N,N'-bis[2-(diethylamino)ethyl]-3,9-dimethylquino[8,7-h]quinoline-1,7-diamine tetrahydrochloride]	<20	< 25	0.57/0.55	1555.41; 1189.46	2686.21; 1058.99	281.66; 2827.70	1555.41; 1189.46	2686.21; 1058.99	delay of parasite patency relative to control mice [6]: 1 to 2 days; delayed patency [6]: 1 days; causal prophylactic protection ([6]; po): does not provide prophylactic protection; toxicity in vivo (P. berghei (P Line); ICR, po): >60; >60; no toxicity in vivo; in vivo clinical toxicity (P. berghei (P Line)): No evidence of in vivo clinical toxicity; day of succumbing to infection (post-parasite inoculation), non-cured mice (P. berghei (P Line); in vivo): 13 to 21 days; mice cured (negative blood smear on day 31 post-infection) (P. berghei (P Line); in vivo): cured one mouse out of five tested; IC50 [8]: 5000 to 10000 nM; Resistance index (RI) C235/D6 [3]: 0.57/0.55
Cc1cc(NCCCN2CCCCC2)c2ccc3c(ccc4c(NCCCN5CCCCC5)cc(C)nc43)c2n1.Cl [Compound 14, 3,9-dimethyl-N,N'-bis(3-piperidin-1-ylpropyl)quino[8,7-h]quinoline-1,7-diamine tetrahydrochloride]	<20	< 25							
Cc1cc(NCCCN2CCOCC2)c2ccc3c(ccc4c(NCCCN5CCOCC5)cc(C)nc43)c2n1.Cl [Compound 16, 3,9-dimethyl-N,N'-bis(3-morpholin-4-ylpropyl)quino[8,7-h]quinoline-1,7-diamine tetrahydrochloride]	<20	< 25	0.38/1.54	1430.40; 1302.12	3740.50; 1728.68	929.32; 635.31	1430.40; 1302.12	3740.50; 1728.68	Selectivity index (IC50) C235 [7]: 929.32; 635.31; IC50 ([8]; Zaire ebolavirus, Vero 76, 48 h): ~5000 nM; IC50 [8]: 2500 to 5000 nM
Cc1cc(NCCN2CCOCC2)c2ccc3c(ccc4c(NCCN5CCOCC5)cc(C)nc43)c2n1.Cl [Compound 17, 3,9-dimethyl-N,N'-bis(2-morpholin-4-ylethyl)quino[8,7-h]quinoline-1,7-diamine tetrahydrochloride]			1.03/1.66	1715.68; 2374.36	1662.42; 2601.48	1033.94; 1815.35	1715.68; 2374.36	1662.42; 2601.48	Selectivity index (IC50) C235 [7]: 1033.94; 1815.35; Resistance index (RI) C235/D6 [3]: 1.03/1.66
